Experimental data: ChEMBL document CHEMBL4680210, “Discovery of 1,6-naphthyridinone-based MET kinase inhibitor bearing quinoline moiety as promising antitumor drug candidate” (Eur J Med Chem, 2020)

What was measured:
cells = details: Homo sapiens, U-87 MG, 72 h
[1] = Half life in rat liver microsomes; assay type: ADME, Microsome
HT-29 = assay: cells; details: Homo sapiens, HT-29, 72 h
[2] = target: Hepatocyte growth factor receptor (Homo sapiens, UniProt P08581)
NCI-H460 = assay: cells; details: Homo sapiens, NCI-H460, 72 h
MKN-45 = assay: cells; details: Homo sapiens, MKN-45, 72 h
[3] = Tmax in Sprague-Dawley rat at 5 mg/kg, po up to 24 hrs by LC-MS/MS analysis; assay type: ADME, organism-based; details: in vivo
[4] = Half life in Sprague-Dawley rat at 1 mg/kg, iv up to 24 hrs by LC-MS/MS analysis; assay type: ADME, organism-based; details: in vivo
[5] = Antitumour activity against human U87MG cells xenografted in athymic nude mouse assessed as tumour growth inhibition at 37.5 mg/kg, po for 21 days relative to control; assay type: functional, U87; details: U-87 MG, 504 h, time 21 day, read-out: TGI
Angiopoietin-1 receptor = Angiopoietin-1 receptor (Homo sapiens, UniProt Q02763); assay: Inhibition of TEK (unknown origin) using biotin as substrate preincubated for 5 mins followed by substrate addition and measured after 30 to 60 mins by HTRF assay
Sequence of Angiopoietin-1 receptor (Q02763 whole entry): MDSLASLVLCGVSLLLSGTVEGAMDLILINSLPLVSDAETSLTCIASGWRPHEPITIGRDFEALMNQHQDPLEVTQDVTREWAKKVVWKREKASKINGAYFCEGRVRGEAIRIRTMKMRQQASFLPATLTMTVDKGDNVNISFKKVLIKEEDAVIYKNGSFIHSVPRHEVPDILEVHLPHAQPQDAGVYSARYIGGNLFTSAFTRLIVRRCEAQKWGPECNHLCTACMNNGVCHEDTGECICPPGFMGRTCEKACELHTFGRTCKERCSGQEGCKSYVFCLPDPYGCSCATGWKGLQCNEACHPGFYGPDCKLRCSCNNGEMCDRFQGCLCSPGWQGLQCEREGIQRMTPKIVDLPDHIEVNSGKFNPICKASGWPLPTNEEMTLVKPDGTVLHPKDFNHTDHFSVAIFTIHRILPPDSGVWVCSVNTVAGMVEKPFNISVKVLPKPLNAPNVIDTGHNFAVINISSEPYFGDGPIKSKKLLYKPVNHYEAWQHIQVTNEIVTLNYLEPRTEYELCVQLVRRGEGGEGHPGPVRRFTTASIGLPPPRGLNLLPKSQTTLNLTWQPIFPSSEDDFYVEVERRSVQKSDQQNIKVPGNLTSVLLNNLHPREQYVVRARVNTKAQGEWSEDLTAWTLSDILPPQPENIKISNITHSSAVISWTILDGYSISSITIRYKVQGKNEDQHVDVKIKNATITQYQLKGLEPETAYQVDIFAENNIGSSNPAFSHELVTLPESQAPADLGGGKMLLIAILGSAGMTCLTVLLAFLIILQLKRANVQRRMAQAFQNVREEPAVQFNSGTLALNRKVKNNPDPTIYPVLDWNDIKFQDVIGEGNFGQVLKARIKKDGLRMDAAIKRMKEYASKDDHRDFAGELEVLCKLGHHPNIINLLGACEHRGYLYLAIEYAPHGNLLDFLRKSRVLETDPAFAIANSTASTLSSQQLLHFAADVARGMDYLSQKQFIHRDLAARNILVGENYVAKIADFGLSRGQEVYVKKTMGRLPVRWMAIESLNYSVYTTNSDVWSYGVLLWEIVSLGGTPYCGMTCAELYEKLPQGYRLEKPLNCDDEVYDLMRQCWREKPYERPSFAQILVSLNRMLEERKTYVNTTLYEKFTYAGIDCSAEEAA

[6] = target: Vascular endothelial growth factor receptor 3 (Homo sapiens, UniProt P35916); assay: Inhibition of FLT4 (unknown origin) using biotin as substrate preincubated for 5 mins followed by substrate addition and measured after 30 to 60 mins by HTRF assay
Sequence of Vascular endothelial growth factor receptor 3 (P35916 whole entry): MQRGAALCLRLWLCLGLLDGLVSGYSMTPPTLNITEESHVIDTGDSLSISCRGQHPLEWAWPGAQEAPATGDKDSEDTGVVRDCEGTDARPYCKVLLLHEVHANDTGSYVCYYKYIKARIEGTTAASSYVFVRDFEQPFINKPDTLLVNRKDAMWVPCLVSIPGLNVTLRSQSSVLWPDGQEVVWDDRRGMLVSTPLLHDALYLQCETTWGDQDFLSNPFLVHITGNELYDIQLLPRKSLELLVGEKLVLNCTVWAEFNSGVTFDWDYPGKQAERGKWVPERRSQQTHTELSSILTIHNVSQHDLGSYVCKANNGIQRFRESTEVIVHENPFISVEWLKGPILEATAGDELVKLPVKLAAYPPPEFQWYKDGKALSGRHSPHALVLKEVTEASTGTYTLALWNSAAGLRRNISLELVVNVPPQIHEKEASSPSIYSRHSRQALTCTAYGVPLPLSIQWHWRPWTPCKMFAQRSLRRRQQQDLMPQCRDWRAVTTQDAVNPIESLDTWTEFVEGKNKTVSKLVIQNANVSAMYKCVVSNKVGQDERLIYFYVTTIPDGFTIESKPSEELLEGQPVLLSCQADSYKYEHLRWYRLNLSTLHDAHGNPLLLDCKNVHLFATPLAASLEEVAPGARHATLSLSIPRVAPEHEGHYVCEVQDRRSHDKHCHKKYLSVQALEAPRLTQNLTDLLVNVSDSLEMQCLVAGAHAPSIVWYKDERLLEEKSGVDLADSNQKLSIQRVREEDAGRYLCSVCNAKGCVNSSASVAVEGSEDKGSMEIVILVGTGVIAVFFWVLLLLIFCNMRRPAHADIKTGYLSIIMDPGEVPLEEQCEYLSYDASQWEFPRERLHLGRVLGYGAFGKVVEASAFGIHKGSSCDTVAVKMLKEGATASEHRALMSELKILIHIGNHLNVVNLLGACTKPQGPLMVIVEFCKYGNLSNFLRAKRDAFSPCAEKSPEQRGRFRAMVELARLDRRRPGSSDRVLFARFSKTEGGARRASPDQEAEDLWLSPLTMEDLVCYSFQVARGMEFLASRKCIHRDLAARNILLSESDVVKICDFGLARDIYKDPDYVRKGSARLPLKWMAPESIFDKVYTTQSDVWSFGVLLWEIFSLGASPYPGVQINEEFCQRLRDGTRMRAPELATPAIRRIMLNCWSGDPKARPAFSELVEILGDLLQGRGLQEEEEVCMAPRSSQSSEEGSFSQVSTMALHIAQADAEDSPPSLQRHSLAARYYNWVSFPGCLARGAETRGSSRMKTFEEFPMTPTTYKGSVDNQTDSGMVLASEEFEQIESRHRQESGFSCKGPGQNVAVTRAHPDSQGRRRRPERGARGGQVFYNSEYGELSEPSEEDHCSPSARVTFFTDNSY

animal or person = details: Homo sapiens, U-87 MG, po, 504 h, read-out: TGI
[7] = Cmax in Sprague-Dawley rat at 1 mg/kg, iv up to 24 hrs by LC-MS/MS analysis; assay type: ADME, organism-based; design: route intravenous, dose 1 mg/kg, time <=24; details: in vivo
[8] = Apparent volume of distribution in Sprague-Dawley rat at 5 mg/kg, po up to 24 hrs by LC-MS/MS analysis; assay type: ADME, organism-based; details: in vivo
[9] = Clearance in Sprague-Dawley rat at 1 mg/kg, iv up to 24 hrs by LC-MS/MS analysis; assay type: ADME, organism-based; details: in vivo
[10] = Antitumour activity against human U87MG cells xenografted in athymic nude mouse assessed as tumour growth inhibition at 3 mg/kg, po for 21 days relative to control; assay type: functional, U87; details: U-87 MG, 504 h, time 21 day, read-out: TGI
[11] = Oral bioavailability in Sprague-Dawley rat at 5 mg/kg up to 24 hrs by LC-MS/MS analysis; assay type: ADME, organism-based; details: in vivo
[12] = AUC (0 to infinity) in Sprague-Dawley rat at 5 mg/kg, po up to 24 hrs by LC-MS/MS analysis; assay type: ADME, organism-based; design: route oral, dose 5 mg/kg, time <=24; details: in vivo
[13] = Cmax in Sprague-Dawley rat at 5 mg/kg, po up to 24 hrs by LC-MS/MS analysis; assay type: ADME, organism-based; design: route oral, dose 5 mg/kg, time <=24; details: in vivo
[14] = Apparent volume of distribution in Sprague-Dawley rat at 1 mg/kg, iv up to 24 hrs by LC-MS/MS analysis; assay type: ADME, organism-based; details: in vivo, read-out: Vz
[15] = target: T1, Tyrosine-protein kinase receptor UFO (Homo sapiens, UniProt P30530); assay: Inhibition of AXL (unknown origin) using biotin as substrate preincubated for 5 mins followed by substrate addition and measured after 30 to 60 mins by HTRF assay
T1 sequence (P30530 whole entry): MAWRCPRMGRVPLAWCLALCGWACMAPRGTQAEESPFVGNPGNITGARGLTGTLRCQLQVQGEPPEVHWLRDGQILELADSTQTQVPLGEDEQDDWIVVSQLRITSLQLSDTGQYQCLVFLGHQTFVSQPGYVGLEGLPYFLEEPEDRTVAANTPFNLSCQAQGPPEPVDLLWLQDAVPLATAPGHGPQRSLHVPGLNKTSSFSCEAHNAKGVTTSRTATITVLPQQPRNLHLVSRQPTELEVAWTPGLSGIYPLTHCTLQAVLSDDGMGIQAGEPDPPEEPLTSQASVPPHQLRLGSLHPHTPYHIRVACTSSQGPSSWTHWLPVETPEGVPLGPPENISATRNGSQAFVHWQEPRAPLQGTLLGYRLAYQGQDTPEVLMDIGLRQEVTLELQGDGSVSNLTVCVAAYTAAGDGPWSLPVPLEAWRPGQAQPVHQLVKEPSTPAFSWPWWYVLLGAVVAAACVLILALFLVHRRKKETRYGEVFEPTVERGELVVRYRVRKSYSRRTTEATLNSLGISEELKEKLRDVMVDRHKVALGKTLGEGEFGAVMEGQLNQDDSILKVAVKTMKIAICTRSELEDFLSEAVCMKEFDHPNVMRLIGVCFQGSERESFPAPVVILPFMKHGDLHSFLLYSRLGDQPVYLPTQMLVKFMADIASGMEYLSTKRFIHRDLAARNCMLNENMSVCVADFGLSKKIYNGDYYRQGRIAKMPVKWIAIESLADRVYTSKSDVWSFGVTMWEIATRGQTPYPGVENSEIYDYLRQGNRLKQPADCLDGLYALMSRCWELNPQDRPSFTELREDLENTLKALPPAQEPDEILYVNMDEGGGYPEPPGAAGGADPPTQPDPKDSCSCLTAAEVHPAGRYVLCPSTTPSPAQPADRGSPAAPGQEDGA

U87 = assay: Antitumour activity against human U87MG cells xenografted in po dosed athymic nude mouse assessed as tumour growth inhibition for 21 days; assay type: functional, organism-based; details: dose 3-37.5 mg/kg, time 21.0 day
[16] = AUC (0 to infinity) in Sprague-Dawley rat at 1 mg/kg, iv up to 24 hrs by LC-MS/MS analysis; assay type: ADME, organism-based; design: route intravenous, dose 1 mg/kg, time <=24; details: in vivo
[17] = Half life in Sprague-Dawley rat at 5 mg/kg, po up to 24 hrs by LC-MS/MS analysis; assay type: ADME, organism-based; details: in vivo
[18] = Clearance in Sprague-Dawley rat at 5 mg/kg, po up to 24 hrs by LC-MS/MS analysis; assay type: ADME, organism-based; details: in vivo
[19] = Antitumour activity against human U87MG cells xenografted in athymic nude mouse assessed as tumour growth inhibition at 6 mg/kg, po for 21 days relative to control; assay type: functional, U87; details: U-87 MG, 504 h, time 21 day, read-out: TGI

Sequence of Hepatocyte growth factor receptor (P08581 whole entry): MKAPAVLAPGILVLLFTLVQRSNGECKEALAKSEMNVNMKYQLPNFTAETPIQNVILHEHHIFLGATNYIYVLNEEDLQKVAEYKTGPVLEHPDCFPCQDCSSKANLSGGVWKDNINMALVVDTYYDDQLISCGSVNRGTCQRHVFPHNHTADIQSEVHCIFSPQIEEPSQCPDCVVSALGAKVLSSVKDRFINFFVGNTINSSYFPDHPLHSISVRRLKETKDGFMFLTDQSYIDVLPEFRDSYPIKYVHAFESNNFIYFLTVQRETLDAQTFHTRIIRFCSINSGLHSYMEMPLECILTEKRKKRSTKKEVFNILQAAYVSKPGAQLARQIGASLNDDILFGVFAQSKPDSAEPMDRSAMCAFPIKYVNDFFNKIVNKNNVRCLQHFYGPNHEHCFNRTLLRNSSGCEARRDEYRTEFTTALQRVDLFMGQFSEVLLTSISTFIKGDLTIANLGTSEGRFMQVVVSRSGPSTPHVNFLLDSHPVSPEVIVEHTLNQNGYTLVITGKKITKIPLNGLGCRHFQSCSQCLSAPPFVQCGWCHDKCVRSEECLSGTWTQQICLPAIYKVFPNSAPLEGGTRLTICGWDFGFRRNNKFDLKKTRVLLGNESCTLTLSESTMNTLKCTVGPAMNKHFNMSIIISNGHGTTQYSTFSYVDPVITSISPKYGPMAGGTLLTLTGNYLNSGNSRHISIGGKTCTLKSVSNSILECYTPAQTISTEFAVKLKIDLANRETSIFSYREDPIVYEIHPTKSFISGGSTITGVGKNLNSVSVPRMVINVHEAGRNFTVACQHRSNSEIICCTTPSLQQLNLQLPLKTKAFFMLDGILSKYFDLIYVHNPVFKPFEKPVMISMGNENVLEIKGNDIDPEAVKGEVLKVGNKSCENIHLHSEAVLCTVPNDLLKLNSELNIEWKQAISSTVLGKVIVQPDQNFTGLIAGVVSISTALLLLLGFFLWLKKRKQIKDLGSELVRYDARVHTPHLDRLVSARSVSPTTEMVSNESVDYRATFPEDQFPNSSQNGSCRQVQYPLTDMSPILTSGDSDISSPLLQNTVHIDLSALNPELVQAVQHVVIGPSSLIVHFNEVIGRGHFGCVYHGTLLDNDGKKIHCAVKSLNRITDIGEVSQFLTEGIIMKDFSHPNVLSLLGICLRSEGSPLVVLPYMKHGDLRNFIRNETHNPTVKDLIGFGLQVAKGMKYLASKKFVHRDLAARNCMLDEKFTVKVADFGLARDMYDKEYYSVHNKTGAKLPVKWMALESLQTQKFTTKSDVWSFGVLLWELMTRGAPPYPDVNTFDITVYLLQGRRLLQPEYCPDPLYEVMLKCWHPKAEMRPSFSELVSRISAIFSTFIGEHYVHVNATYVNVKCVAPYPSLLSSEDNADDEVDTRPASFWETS

IC50 (cells) [µM] | half-life [1] [h] | IC50 (HT-29) [µM] | IC50 [2] [µM] | IC50 (NCI-H460) [µM] | IC50 (MKN-45) [µM] | SMILES | other results
5.1 | 1.73 | 6.5 | 0.0084 | 4.3 | 5.6 | COCCOc1ccc2c(Oc3ccc(Nc4nccc5[nH]cc(-c6ccc(F)cc6)c(=O)c45)cc3F)ccnc2c1 | 
 |  |  | 0.0197 |  |  | COc1cc2c(Oc3ccc(Nc4nccc5[nH]cc(-c6ccc(F)cc6)c(=O)c45)cc3F)ccnc2cc1OCC(C)C | 
7.2 | 0.893 | 5.9 | 0.005 | 43 | 5 | O=c1c(-c2ccc(F)cc2)c[nH]c2ccnc(Nc3ccc(Oc4ccnc5cc(O)ccc45)c(F)c3)c12 | 
8.5 | 1.42 | 3.9 | 0.133 | 3.4 | 3.1 | CC(O)COc1ccc2c(Oc3ccc(Nc4nccc5[nH]cc(-c6ccc(F)cc6)c(=O)c45)cc3F)ccnc2c1 (stereo not given) | 
16.4 | 1.45 | 4.8 | 0.0131 | 4.4 | 5.5 | COC(C)(C)COc1ccc2c(Oc3ccc(Nc4nccc5[nH]cc(-c6ccc(F)cc6)c(=O)c45)cc3F)ccnc2c1 | 
 | 0.297 |  |  |  |  | O=c1c(-c2ccccc2)c[nH]c2ccnc(Nc3ccc(Oc4ccnc5cc(OCCCN6CCOCC6)ccc45)c(F)c3)c12 | 
4.1 | 1.48 | 2.9 | 0.0057 | 2 | 1.6 | COc1cc2c(Oc3ccc(Nc4nccc5[nH]cc(-c6ccc(F)cc6)c(=O)c45)cc3F)ccnc2cc1OCCO | 
 |  |  | 0.0403 |  |  | Cc1[nH]c2ccnc(Nc3ccc(Oc4ccnc5cc(OCC(C)(C)O)ccc45)c(F)c3)c2c(=O)c1-c1ccccc1 | 
 |  |  | 0.0077 |  |  | COCCOc1cc2nccc(Oc3ccc(Nc4nccc5[nH]cc(-c6ccccc6)c(=O)c45)cc3F)c2cc1OC | 
 | 1.5 |  | 0.0278 |  |  | CC(C)COc1ccc2c(Oc3ccc(Nc4nccc5[nH]cc(-c6ccc(F)cc6)c(=O)c45)cc3F)ccnc2c1 | 
 |  |  | 0.0121 |  |  | COc1cc2c(Oc3ccc(Nc4nccc5[nH]cc(-c6ccc(F)cc6)c(=O)c45)cc3F)ccnc2cc1OCC(C)(C)OC | 
4.7 | 4.14 | 3.4 |  | 3.2 | 2.7 | CC(C)(O)COc1ccc2c(Oc3ccc(Nc4nccc5[nH]cc(-c6ccc(F)cc6)c(=O)c45)cc3F)ccnc2c1 | 
2.6 | 5.17 | 2.1 |  | 1.7 | 1.4 | COc1cc2c(Oc3ccc(Nc4nccc5[nH]cc(-c6ccc(F)cc6)c(=O)c45)cc3F)ccnc2cc1OCC(C)(C)O | 
5.2 | 1.06 | 4.6 | 0.083 | 3 | 3.1 | COCCOc1cc2nccc(Oc3ccc(Nc4nccc5[nH]cc(-c6ccc(F)cc6)c(=O)c45)cc3F)c2cc1OC | 
4.5 | 5.37 | 4.2 |  | 3.6 | 2.9 | CC(C)(O)COc1ccc2c(Oc3ccc(Nc4nccc5[nH]cc(-c6ccccc6)c(=O)c45)cc3F)ccnc2c1 | Tmax [3]: 4 h; half-life [4]: 4 h; inhibition in vivo at 37.5 mg/kg [5]: 172%; IC50 (Angiopoietin-1 receptor): 0.019 µM; IC50 [6]: 0.116 µM; inhibition in vivo at 12.5 mg/kg (animal or person): 131%; Cmax [7]: 500 ng/mL; Vz [8]: 3.3 L/kg; clearance [9]: 3.33 mL/min/kg; inhibition in vivo at 3 mg/kg [10]: 47%; bioavailability [11]: 32%; AUC(0-inf) [12]: 10700 ng·h/mL; Cmax [13]: 1500 ng/mL; Vd [14]: 0.9 L/kg; IC50 [15]: 0.0323 µM; TGI (U87): Dose-dependent effect; AUC(0-inf) [16]: 6600 ng·h/mL; half-life [17]: 4.9 h; CL/F [18]: 8.33 mL/min/kg; inhibition in vivo at 6 mg/kg [19]: 57%
 |  |  | 0.0766 |  |  | COc1cc2nccc(Oc3ccc(Nc4nccc5[nH]cc(-c6ccc(F)cc6)c(=O)c45)cc3F)c2cc1OC | 
4.9 | 1.51 | 5.5 |  | 3.5 | 4.7 | O=c1c(-c2ccc(F)cc2)c[nH]c2ccnc(Nc3ccc(Oc4ccnc5cc(OCCO)ccc45)c(F)c3)c12 | 
 | 0.11 |  |  |  |  | O=c1c(-c2ccc(F)cc2)c[nH]c2ccnc(Nc3ccc(Oc4ccnc5cc(OCCN6CCOCC6)ccc45)c(F)c3)c12 | 
